The source of these data is patent US20260217698A1 (BEYANG THERAPEUTICS CO., LTD., priority 2022, published 2026).

A value given as a limit tells only on which side of the number the result lay.

Data set [1] deals with T1, EGFR (Homo sapiens, UniProt P00533).
T1 construct: purchased Carna 08-115
As to the kind of experiment: Kinase inhibition, Mobility Shift Assay/IMAP, EGFR. In kind it is biochemical. Summed up: (§1)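 Substrate conversion (phosphorylated vs non-phosphorylated) read by mobility shift on Caliper EZ Reader II and converted to % inhibition relative to no-enzyme and DMSO controls. IC50 fitted from % inhibition versus log compound concentration.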

The test system of data set [2] is melanin. As to the kind of experiment: Binding capacity of compounds to melanin. Format: in vitro ADME, cuttlefish (Sepia officinalis). Particulars: cuttlefish (Sepia officinalis), melanin suspension (1 mg/mL); 1 mg/mL melanin in PBS pH 7.4, 2 μM compound, 2 h at 37° C.; read-out: Fu % (percentage of free drug). Summed up:
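Compound (2 μM final) incubated with washed Sepia melanin (1 mg/mL, PBS pH 7.4) 2 h at 37° C with shaking; PBS with 0.1% BSA served as blank. Supernatants quantified by LC-MS/MS; bound fraction Fb derived from melanin versus blank concentration.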

Data set [3] deals with T2, VEGFR2 (Homo sapiens, UniProt P35968). As to the kind of experiment: Kinase inhibition, Mobility Shift Assay/IMAP, VEGFR2. Format: biochemical. Set-up: purchased Carna 08-191. The gist of the method: as §1
Target sequence in this assay (P35968 790-1356 limits assumed): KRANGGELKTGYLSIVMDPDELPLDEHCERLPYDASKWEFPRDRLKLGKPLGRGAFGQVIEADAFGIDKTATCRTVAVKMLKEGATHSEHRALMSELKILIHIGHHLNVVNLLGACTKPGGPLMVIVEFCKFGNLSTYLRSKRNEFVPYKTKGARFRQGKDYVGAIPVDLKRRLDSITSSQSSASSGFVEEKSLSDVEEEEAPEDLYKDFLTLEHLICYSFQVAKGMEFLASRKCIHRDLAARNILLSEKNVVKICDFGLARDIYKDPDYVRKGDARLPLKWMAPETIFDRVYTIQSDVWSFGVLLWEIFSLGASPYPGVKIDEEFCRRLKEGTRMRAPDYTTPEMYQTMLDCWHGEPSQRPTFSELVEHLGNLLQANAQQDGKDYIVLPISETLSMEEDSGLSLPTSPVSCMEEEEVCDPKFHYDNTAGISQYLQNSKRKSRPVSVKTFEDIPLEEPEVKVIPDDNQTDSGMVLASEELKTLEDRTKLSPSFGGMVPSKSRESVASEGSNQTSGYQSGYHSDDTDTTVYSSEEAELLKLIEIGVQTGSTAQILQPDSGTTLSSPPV
The target of data set [4] is T2, VEGFR2. As to the kind of experiment: Inhibition of VEGF-induced VEGFR2 autophosphorylation (pVEGFR2) in HUVEC cells, ELISA. Format: cell-based. Particulars: 50 ng/mL human VEGF, compound 1 h. Also noted: endogenous in cells; host or cells: HUVEC. The text has this: Vascular endothelial growth factor receptor 2 (VEGFR2) is a primary receptor for VEGF-induced endothelial cell signaling. After ligand binding, VEGFR2 is autophosphorylated and activated. The main function of signaling from VEGFR2 is to induce vascularization during development and after tissue injury, and to bypass blocked blood vessels. Pathologically, VEGF and VEGFR2 are involved in tumor angiogenesis and vascular leakage. They are considered to be main participants in many different cancers and ocular diseases that accompany pathological neovascularization. This assay measured the ability of the compounds to inhibit VEGF-induced VEGFR2 autophosphorylation (pVEGFR2) in HUVEC cells by using ELISA.
Culture cells in a cell culture flask to reach a fusion degree of 60%-80% before cell inoculation. Dilute the cell suspension to […] with a pre-warmed complete medium. Add 80 μL of the cell suspension to all wells of a 96-well cell plate (Corning-3599); and incubate the plate overnight at 37° C. in the presence of 5% CO2. Dissolve the compound powder to 10 mM with DMSO and store it in a nitrogen cabinet. Compound dilution plate: Add a reference compound Ponatinib or a compound to be tested to a 96 V-well plate (Axygen-WIPP 2280) at concentrations achieved as follows: performing 3-fold gradient dilution starting from 5 mM (5 μL of 10 mM compound solution plus 5 μL of DMSO) for a total of 8 concentration points. […] Transfer 20 μL of the diluted compound from the intermediate plate to a cell plate. Then, incubate the cell plate for 1 h at 37° C. in the presence of 5% CO2. After the compound was treated for 1 h, add 25 μL of 250 ng/ml human VEGF at a final concentration of 50 ng/mL to a 96-well plate; and incubate the plate for 5 min at 37° C. in the presence of 5% CO2, centrifuge the plate for 10 min at 3,000 rpm, remove the medium and wash the cells once with 300 μL of pre-chilled DPBS per well. Then, centrifuge the plate for 10 min at 4,000 rpm, remove DPBS, and add 110 μL of pre-chilled 1× cell lysis buffer per well to the 96-well plate. Shake the plate for 40 min at 4° C. Then, freeze the plate in a refrigerator at −80° C. On the next day, remove the plate from the refrigerator at −80° C., thaw the plate, centrifuge the plate for 10 min at 3500 rpm, and add 100 μL of the supernatant per well to an ELISA plate. Seal the plate and incubate it for 2 h at 37° C. Wash the wells 4 times with 1× wash buffer. Add 100 μL of recombinant detection antibody per well. Seal the plate, incubate the plate for 1 h at 37° C., and repeat the step of plate washing. Add 100 μL of secondary antibody per well. Seal the plate, incubate the plate for 30 min at 37° C., and repeat the step of plate washing. Add 100 μL of TMB (protected from light) per well. Seal the plate, incubate the plate for 30 min at 37° C., and add 100 μL of the stop solution per well. Gently shake for 30 sec, measure the absorbance with a SpectraMax® 340 PC 384 Absorbance Microplate Reader within 30 min, and read an optical density value at 450 nm. Conduct data analysis using XL Fit software:
Conduct curve fitting using the 4 Parameter Logistic Model or Sigmoidal Dose-Response Model to obtain IC50 values.
X indicates the log value of compound concentration, Y indicates the inhibition rate (% inhibition), Top indicates the readout of the negative control wells, and Bottom indicates the readout of the positive control well.
Target sequence in this assay (P35968 20-1356): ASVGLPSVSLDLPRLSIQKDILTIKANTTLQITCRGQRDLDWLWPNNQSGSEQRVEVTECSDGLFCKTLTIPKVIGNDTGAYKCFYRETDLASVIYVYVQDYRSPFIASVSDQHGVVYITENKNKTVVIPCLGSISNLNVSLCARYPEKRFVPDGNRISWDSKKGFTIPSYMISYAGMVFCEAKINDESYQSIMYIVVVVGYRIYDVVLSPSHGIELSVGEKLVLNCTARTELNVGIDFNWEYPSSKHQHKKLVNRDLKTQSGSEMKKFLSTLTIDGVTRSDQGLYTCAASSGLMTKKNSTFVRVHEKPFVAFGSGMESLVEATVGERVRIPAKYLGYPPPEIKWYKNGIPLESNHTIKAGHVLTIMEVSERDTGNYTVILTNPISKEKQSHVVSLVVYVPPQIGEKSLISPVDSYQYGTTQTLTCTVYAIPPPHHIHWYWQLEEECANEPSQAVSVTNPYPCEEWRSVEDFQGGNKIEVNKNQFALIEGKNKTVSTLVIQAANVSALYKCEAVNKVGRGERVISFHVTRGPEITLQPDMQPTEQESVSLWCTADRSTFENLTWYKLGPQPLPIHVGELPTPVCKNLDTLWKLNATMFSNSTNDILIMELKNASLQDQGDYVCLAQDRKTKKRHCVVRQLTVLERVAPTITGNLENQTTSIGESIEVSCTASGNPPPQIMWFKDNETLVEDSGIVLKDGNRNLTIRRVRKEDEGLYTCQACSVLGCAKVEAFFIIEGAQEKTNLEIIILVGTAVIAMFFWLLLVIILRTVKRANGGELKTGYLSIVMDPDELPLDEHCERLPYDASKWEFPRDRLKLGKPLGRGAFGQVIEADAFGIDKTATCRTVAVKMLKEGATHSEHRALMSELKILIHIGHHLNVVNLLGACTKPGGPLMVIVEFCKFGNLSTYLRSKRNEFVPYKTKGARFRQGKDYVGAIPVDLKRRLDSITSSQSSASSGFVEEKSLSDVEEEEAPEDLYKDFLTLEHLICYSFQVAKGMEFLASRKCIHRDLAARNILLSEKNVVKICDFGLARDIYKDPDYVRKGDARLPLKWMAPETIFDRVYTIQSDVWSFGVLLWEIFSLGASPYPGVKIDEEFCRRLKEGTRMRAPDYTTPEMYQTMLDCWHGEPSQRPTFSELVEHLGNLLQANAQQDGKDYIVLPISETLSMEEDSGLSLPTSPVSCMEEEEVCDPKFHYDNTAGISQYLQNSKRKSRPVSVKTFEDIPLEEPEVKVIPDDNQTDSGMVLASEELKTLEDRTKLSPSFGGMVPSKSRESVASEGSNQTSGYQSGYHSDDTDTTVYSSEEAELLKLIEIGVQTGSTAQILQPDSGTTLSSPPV
A general note: An ELISA detects its analyte on a solid surface through an enzyme-linked reagent.

T1 sequence (P00533 669-1210 limits assumed): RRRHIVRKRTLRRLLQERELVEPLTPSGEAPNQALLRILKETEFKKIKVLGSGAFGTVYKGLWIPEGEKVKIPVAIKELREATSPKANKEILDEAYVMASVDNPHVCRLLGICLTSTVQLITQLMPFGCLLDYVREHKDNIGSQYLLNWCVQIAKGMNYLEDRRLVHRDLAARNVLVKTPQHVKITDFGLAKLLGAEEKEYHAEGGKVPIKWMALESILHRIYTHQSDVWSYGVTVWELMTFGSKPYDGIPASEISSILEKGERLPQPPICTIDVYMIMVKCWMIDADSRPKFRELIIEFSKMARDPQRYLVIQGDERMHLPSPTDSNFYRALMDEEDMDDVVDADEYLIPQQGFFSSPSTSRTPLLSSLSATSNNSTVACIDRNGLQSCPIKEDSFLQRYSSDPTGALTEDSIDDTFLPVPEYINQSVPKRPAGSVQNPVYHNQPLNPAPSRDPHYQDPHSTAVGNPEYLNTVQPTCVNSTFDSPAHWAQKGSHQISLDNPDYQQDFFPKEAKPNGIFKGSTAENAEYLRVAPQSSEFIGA

Turning to `NC(=O)c1c(OCc2cc(C(=O)NC3CC3)ccc2F)nsc1NC(=O)NCCCCN1CCCC1` [Compound T087, 3-[[5-(cyclopropylcarbamoyl)-2-fluoro-phenyl]methoxy]-5-(4-pyrrolidin-1-ylbutylcarbamoylamino)isothiazole-4-carboxamide], the values for the IC50 in data set [1], in data set [3] and in data set [4] were 15200 nM, 1.66 nM and 30 nM, respectively. Further, the fraction unbound at 2 h, 2 μM in data set [2] is 0.0374.
The like results for `NC(=O)c1c(OCc2cc3c(cc2F)CCO3)nsc1NC(=O)NCCCCN1CC[C@@H](O)C1` [Compound T091, 3-[(5-fluoro-2,3-dihydrobenzofuran-6-yl)methoxy]-5-[4-[(3R)-3-hydroxypyrrolidin-1-yl]butylcarbamoylamino] isothiazole-4-carboxamide] were, in that order, 9890 nM, 3.03 nM, 87 nM and 0.0286.
Consider `CN1CCN(CCCNC(=O)Nc2snc(OCc3cc4c(cc3F)CCO4)c2C(N)=O)CC1` [Compound T101, 3-[(5-fluoro-2,3-dihydrobenzofuran-6-yl)methoxy]-5-[3-(4-methylpiperazin-1-yl)propylcarbamoylamino] isothiazole-4-carboxamide], for which the results for the IC50 in data set [1], in data set [3] and in data set [4] were 9160 nM, 4.85 nM and 103 nM, respectively. The fraction unbound at 2 h, 2 μM in data set [2] came out at 0.0702.
The like results for `NC(=O)c1c(OCc2cc(C(=O)NC3CC3)ccc2F)nsc1NC(=O)NCCCN1CC[C@H](F)C1` [Compound T116, 3-[[5-(cyclopropylcarbamoyl)-2-fluoro-phenyl]methoxy]-5-[3-[(3S)-3-fluoropyrrolidin-1-yl]propylcarbamoylamino]isothiazole-4-carboxamide] were, in that order, 18000 nM, 1.14 nM, 61 nM and 0.0376.
As to `CN1CCN(CCCNC(=O)Nc2snc(OCc3cc(C(=O)NC4CC4)ccc3F)c2C(N)=O)CC1` [Compound T118, 3-[[5-(cyclopropylcarbamoyl)-2-fluoro-phenyl]methoxy]-5-[3-(4-methylpiperazin-1-yl)propylcarbamoylamino]isothiazole-4-carboxamide], the half-inhibitory concentration (IC50) in data set [1] is 8960 nM; in data set [3], 1.15 nM; in data set [4] it was 48.2 nM. Moreover, the fraction unbound at 2 h, 2 μM in data set [2] came out at 0.111.
The like results for `NC(=O)c1c(OCc2cc(C(=O)NC3CC3)ccc2Cl)nsc1NC(=O)NCCCCN1CCCC1` [Compound T123, 3-[[2-chloro-5-(cyclopropylcarbamoyl)phenyl]methoxy]-5-(4-pyrrolidin-1-ylbutylcarbamoylamino)isothiazole-4-carboxamide] were, in that order, 26900 nM, 0.63 nM, 0.78 nM and 0.0298.
The like results for `NC(=O)c1c(OCc2c(F)ccc(C(=O)NC3CC3)c2F)nsc1NC(=O)NCCCCN1CCCC1` [Compound T124, 3-[[3-(cyclopropylcarbamoyl)-2,6-difluoro-phenyl]methoxy]-5-(4-pyrrolidin-1-ylbutylcarbamoylamino)isothiazole-4-carboxamide] were, in that order, more than 60000 nM, 2.2 nM, 16.2 nM and 0.0707.

What is called IC50 is the concentration at which inhibition is half-maximal.
